Several values for one entry are separate records, joined by “and”; a condition that tells them apart may be missing. Equal values may be shown once.
Legend:
[1] = molecular target: MMP-2; settings: cited from earlier work
[2] = Pharmacokinetics and brain distribution after multiple-dose s.c. administration; type: in vivo, p21 naïve male C57Bl/6J mice
Experimental: Dosing route and concentration were similar to what we proposed to do for treatment for the current study. Terminal blood samples were collected in heparinized tubes through the posterior vena cava and centrifuged to obtain plasma (n = 3 per time point). Whole brain samples were harvested after transcardial perfusion with saline, immediately flash frozen in liquid nitrogen, and stored at -80°C until analysis.

[3] = test system: TBI in adult mice; settings: equivalent dose; cited from earlier work
[4] = 25 mg/kg s.c. at 0, 2 and 24 h, p21 mice
[5] = 0.5 h after final dose, 25 mg/kg s.c. at 0, 2 and 24 h, p21 mice
[6] = 1 h after final dose, 25 mg/kg s.c. at 0, 2 and 24 h, p21 mice
[7] = 2 h after final dose, 25 mg/kg s.c. at 0, 2 and 24 h, p21 mice

## O=S(=O)(CC1CS1)c1ccc(Oc2ccc(O)cc2)cc1 (centres unmarked) [p-OH SB-3CT]
[1]
  Ki: 6 ± 3 nM
[2]; [4]
  AUC 0-last, brain: 189 pmol·min/mg
  AUC 0-last, plasma: 273 µM·min
  AUC 0-∞, brain: 191 pmol·min/mg
  AUC 0-∞, plasma: 276 µM·min
  Brain AUC /Plasma AUC: 0.693
[2]; [5]
  Brain concentration: 4.67 ± 1.60 pmol/mg tissue
  Plasma concentration: 6.49 ± 4.49 µM
[2]; 30 min after final dose, assuming a density of 1 g/mL
  peak brain level expressed as concentration: 4.67 µM
[2]; [6]
  Brain concentration: 0.905 ± 1.09 pmol/mg tissue
  Plasma concentration: 1.66 ± 1.82 µM
[2]; [7]
  Brain concentration: 0.0772 ± 0.0211 pmol/mg tissue
  Plasma concentration: 0.122 ± 0.0762 µM
[2]; 4 h after final dose, 25 mg/kg s.c. at 0, 2 and 24 h, p21 mice, 25 mg/kg
  Brain concentration: 0.0209 ± 0.0058 pmol/mg tissue and 0.0209 ± 0.00578 pmol/mg tissue
[2]; s.c., after the final dose
  time to peak concentration in brain: 30 min
  time to peak concentration in plasma: 30 min
[3]
  functional and neuropathological outcomes after severe TBI in adult mice: treatment-dependent improvement in functional and neuropathological outcomes

From publication PMC4654502, “Early Gelatinase Activity Is Not a Determinant of Long-Term Recovery after Traumatic Brain Injury in the Immature Mouse” (PLoS ONE, 2015)
